Series [1] deals with Aspergillus niger ATCC 6275. Briefly: Enhancing activity of azole antifungal agent, susceptibility test for conidiogenous fungi NCCLS M38-P (Alamar Blue). It counts as cell-based. To be noted: for enhancing action of the activity of azole antifungal agent (in words): Aspergillus niger ATCC 6275, summary statement. On the procedure: (§1) Candida albicans ATCC 64548, fluconazole resistant Candida albicans ATCC 64550 and Aspergillus niger ATCC 6275 were used as test organisms.
Enhancing activity of azole antifungal agent on Aspergillus niger ATCC 6275 was determined by the drug susceptibility test method for conidiogenous fungi proposed by NCCLS (M38-P). Spores of the strain of Aspergillus niger ATCC 6275 were suspended in the physiological saline to maintain a value at OD 530 nm being 0.09-0.11. The suspension was further diluted 100 times with PRMI1640 medium to prepare inoculating microorganism solution. […] Further, FKI-1366 substance A, FKI-1366 substance B or FKI-1366 substance C, 10 μl, each of which was prepared for maintaining the final concentration of 2.5, 5.0 and 10 μg/ml, was added. Finally, the test microorganism suspension 80 μl was added. Alamar Blue solution (Asahi Glass Co., Japan) 20 μl, a coloring reagent, was added thereto and incubated at 35° C. for 24 hours. […] When IC50 value without addition of FKI-1366 substance A, FKI-1366 substance B or FKI-1366 substance C was set as 1.0, a ratio of IC50 with addition of FKI-1366 substance A, FKI-1366 substance B or FKI-1366 substance C was determined as the enhancing activity.
On the technique in general: The colour change of resazurin is a common sign of viable cells or microbes.

Another series in a line: Solubility in solvents. It counts as physicochemical.
In series [2] the test system is Candida albicans ATCC 64548. The series is described as follows: Enhancing activity of azole antifungal agent, yeast susceptibility test NCCLS M27-A. It counts as cell-based. The note with it: for enhancing action of the activity of azole antifungal agent (in words): C. albicans ATCC64548, summary statement; for Ratio (enhancing activity): IC50 without addition set as 1.0. On the procedure: as §1
(§2) Enhancing activity of azole antifungal agent on Candida albicans ATCC 64548 and ATCC 64550 was determined by yeast susceptibility test method, National Committee for Clinical Standard (NCCLS) Standard Method M27-A. Each suspension of inoculating strain was spread over YM agar medium (0.5% yeast extract, 0.5% malt extract, 0.5% peptone, 1% glucose and 1.5% agar) and cultured at 35° C. for 36 hours. Five grown colonies with a diameter 1 mm or more were collected and the colonies were suspended in physiological saline 5 ml. The suspension was further diluted with physiological saline to prepare the test microorganism suspension having McFarland transmittance 0.5. RPMI 1640 medium 70 μl was added into 96 well plastic plate (Corning Inc., U.S.). […] Finally, the test microorganism suspension 100 μl was added and incubated at 35° C. for 24 hours. […] When IC50 value without addition of FKI-1366 substance A, FKI-1366 substance B or FKI-1366 substance C was set as 1.0, a ratio of IC50 with addition of FKI-1366 substance A, FKI-1366 substance B or FKI-1366 substance C was determined as the enhancing activity.

In series [3] the test system is fluconazole resistant Candida albicans ATCC 64550. It is filed as cell-based. The note with it: for Ratio (enhancing activity): IC50 without addition set as 1.0; for enhancing action of the activity of azole antifungal agent (in words): fluconazole resistant C. albicans ATCC64550, summary statement. The protocol: as §1, §2
Setting [4] is: Table 1, miconazole + FKI-1366 substance 2.5 μg/ml, IC50 without addition set as 1.0.
Setting [5] is: Table 1, miconazole + FKI-1366 substance 5.0 μg/ml, IC50 without addition set as 1.0.
Where [6] appears, read: Table 1, miconazole + FKI-1366 substance 10 μg/ml, IC50 without addition set as 1.0.
[7] abbreviates: DMSO, methanol, chloroform and ethyl acetate.
Setting [8] is: Table 1, miconazole + FKI-1366 substance 0.5 μg/ml.
[9] abbreviates: Table 1, miconazole + FKI-1366 substance 1.0 μg/ml.
The mark [10] stands for this setting: Table 1, miconazole + FKI-1366 substance 2.0 μg/ml.
The mark [11] stands for this setting: Table 2 (fluconazole) + FKI-1366 substance 0.5 μg/ml.
Setting [12] is: Table 2 (fluconazole) + FKI-1366 substance 1.0 μg/ml.
[13] abbreviates: Table 2 (fluconazole) + FKI-1366 substance 2.0 μg/ml.
Setting [14] is: Table 2 (fluconazole) + FKI-1366 substance 2.5 μg/ml, IC50 without addition set as 1.0.
Where [15] appears, read: Table 2 (fluconazole) + FKI-1366 substance 5.0 μg/ml, IC50 without addition set as 1.0.
The mark [16] stands for this setting: Table 2 (fluconazole) + FKI-1366 substance 10 μg/ml, IC50 without addition set as 1.0.

From US20060252930A1 (priority 2003, published 2006) come the findings set out here.

“And” between values parts separate entries of the source, which are not always exact repeats. Identical values can stand only once. Like-named read-outs stand apart in the source and are kept apart here.

With `CC(C)CC1NC(=O)C(C(C)C)OC(=O)C(Cc2ccccc2)N(C)C(=O)C(C(C)C)OC(=O)C(Cc2ccccc2)N(C)C(=O)C(C(C)C)OC1=O` (stereo not shown) [FKI-1366 substance B], the “Ratio (enhancing activity)” value in series [1] was 1.8 and 2.4 and 3.5; in series [1] (setting [4]), 1.8; in series [1] (setting [5]) it was 2.4; in series [1] (setting [6]), 3.5; in series [2] (setting [8]), 1.7; in series [2] (setting [9]), 6.0. Moreover, the “Ratio (enhancing activity)” value in series [2] (setting [10]) is more than 55; in series [3] (setting [8]), 1.4; in series [3] (setting [9]) it was 4.2; in series [3] (setting [10]) it was more than 60; in series [3] (setting [11]), 1.4; in series [3] (setting [12]), 4.2. For the same compound, the “Ratio (enhancing activity)” value in series [3] (setting [13]) was more than 60. Moreover, the “enhancing action of the activity of azole antifungal agent (in words)” value (“enhancing action of the activity … (in words)” below) in series [1], in series [2] and in series [3] was “enhancing action” throughout. In addition, the Solubility in solvents entry in the series “Solubility in solvents” (setting [7]) is reported as “Soluble”; in the series “Solubility in solvents” (water and n-hexane) it was “Slightly soluble”.
Turning to `CC(C)CC1OC(=O)C(Cc2ccccc2)N(C)C(=O)C(C(C)C)OC(=O)C(Cc2ccccc2)N(C)C(=O)C(C(C)C)OC(=O)C(Cc2ccccc2)N(C)C1=O` (stereo not shown) [FKI-1366 substance C], the “enhancing action of the activity … (in words)” value in series [1], in series [2] and in series [3] was “enhancing action” throughout. The “Ratio (enhancing activity)” value in series [1] (setting [4]) is 5.2; in series [1] (setting [5]), 8.0; in series [1] (setting [6]), 11.0; in series [1] (setting [14]) it was 5.2; in series [1] (setting [15]), 8.0; in series [1] (setting [16]) it was 11.0. Also, the “Ratio (enhancing activity)” value is given as 1.0 in series [2] (setting [8]); 2.5 in series [2] (setting [9]); more than 55 in series [2] (setting [10]); 1.0 in series [2] (setting [11]); 2.5 in series [2] (setting [12]); more than 55 in series [2] (setting [13]). For the same compound, the “Ratio (enhancing activity)” value in series [3] (setting [8]) amounted to 1.0; in series [3] (setting [9]), 1.1; in series [3] (setting [10]) it was 3.9; in series [3] (setting [11]) it was 1.0; in series [3] (setting [12]), 1.1; in series [3] (setting [13]), 3.9. In addition, the Solubility in solvents entry was “Soluble” in “Solubility in solvents” (setting [7]); “Slightly soluble” in the series “Solubility in solvents” (water and n-hexane).
In the case of `CC(C)C1OC(=O)C(Cc2ccccc2)N(C)C(=O)C(C(C)C)OC(=O)C(Cc2ccccc2)N(C)C(=O)C(C(C)C)OC(=O)C(Cc2ccccc2)NC1=O` (stereo not shown) [FKI-1366 substance A], the “enhancing action of the activity … (in words)” value in series [1], in series [2] and in series [3] was “enhancing action” in each case. The “Ratio (enhancing activity)” value stood at 5.5 in series [1] (setting [4]); 9.6 in series [1] (setting [5]); 10.9 in series [1] (setting [6]); 5.5 in series [1] (setting [14]); 9.6 in series [1] (setting [15]); 10.9 in series [1] (setting [16]). Also, the “Ratio (enhancing activity)” value is given as 1.0 in series [2] (setting [8]); 1.4 in series [2] (setting [9]); more than 55 in series [2] (setting [10]); 1.0 in series [2] (setting [11]); 1.4 in series [2] (setting [12]); more than 55 in series [2] (setting [13]). Also, the “Ratio (enhancing activity)” value in series [3] (setting [8]) is reported as 1.2; in series [3] (setting [9]), 5.0; in series [3] (setting [10]) it was more than 60; in series [3] (setting [11]), 1.2; in series [3] (setting [12]) it was 5.0; in series [3] (setting [13]), more than 60. Further, the Solubility in solvents result is “Soluble” in “Solubility in solvents” (setting [7]); “Slightly soluble” in “Solubility in solvents” (water and n-hexane).
